Read-outs that look alike come from different tables or passages of the source.
Legend:
[1] = target: T1, HIV-integrase (Human immunodeficiency virus type 1 group M subtype B, UniProt P12497); assay: HIV-Integrase Inhibition Activity (SPA bead strand-transfer assay); format: biochemical
T1 construct: Recombinant integrase (0.26 ng) was incubated with the beads
Outline: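 Strand-transfer read-out: CPM from P33-labelled target DNA (0.1 fmol) joined to bead-bound biotin substrate DNA (5 pmole), with EDTA stop at 10 mM final. Integrase (0.26 ng) prebound to streptavidin SPA beads 90 min, 37° C, and washed before adding inhibitor.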

[2] = test system: NL-Rluc virus; assay: Inhibition of HIV replication (recombinant NL-Rluc virus, luciferase); format: cell-based; conditions: Human immunodeficiency virus 1, read-out: Inhibition of HIV replication
[3] = Table 1, read-out: Activity (HIV-integrase inhibition, IC50 class)
[4] = Table 2a, read-out: HIV-Integrase Inhibition Activity

Compound | melting point [°C] | IC50 [1, 3] [nM] | IC50 [1, 4] [nM] | EC50 [2] [nM]
O=C(NCc1ccc(F)cc1)c1nc2n(c(=O)c1O)CCOC2 [Example 1, Pyrimido[2,1-c][1,4]oxazine-2-carboxamide, N-[(4-fluorophenyl)methyl]-4,6,7,9-tetrahydro-3-hydroxy-4-oxo-] | 211 | 2 to 100 | – | –
Cc1cc(CNC(=O)c2nc3n(c(=O)c2O)CCOC3)ccc1F [Example 2, Pyrimido[2,1-c[]1,4]oxazine-2-carboxamide, N-[(4-fluoro-3-methylphenyl)methyl]-4,6,7,9-tetrahydro-3-hydroxy-4-oxo-] | 206 to 208 | 2 to 100 | – | –
CC1OCCn2c1nc(C(=O)NCc1ccc(F)cc1)c(O)c2=O (stereo not shown) [Example 4, Pyrimido[2,1-c][1,4]oxazine-2-carboxamide, N-[(4-fluorophenyl)methyl]-4,6,7,9-tetrahydro-3-hydroxy-9-methyl-4-oxo-] | 165 to 167 | 2 to 100 | – | –
Cc1cc(CNC(=O)c2nc3n(c(=O)c2O)CCOC3C)ccc1F (stereo not shown) [Example 5, Pyrimido[2,1-c][1,4]oxazine-2-carboxamide, N-[(4-fluoro-3-methylphenyl)methyl]-4,6,7,9-tetrahydro-3-hydroxy-9-methyl-4-oxo-] | 134 | 2 to 100 | – | –
CC1OCCn2c1nc(C(=O)NCc1ccc(Cl)c(Cl)c1)c(O)c2=O (stereo not shown) [Example 6, Pyrimido[2,1-c][1,4]oxazine-2-carboxamide, N-[(3,4-dichlorophenyl)methyl]-4,6,7,9-tetrahydro-3-hydroxy-9-methyl-4-oxo-] | 192 | 2 to 100 | – | –
CC1OCCn2c1nc(C(=O)NCc1ccc(F)c(Cl)c1)c(O)c2=O (stereo not shown) [Example 7, Pyrimido[2,1-c][1,4]oxazine-2-carboxamide, N-[(3-chloro-4-fluorophenyl)methyl]-4,6,7,9-tetrahydro-3-hydroxy-9-methyl-4-oxo-] | 172 | 2 to 100 | – | –
CC1(C)OCCn2c1nc(C(=O)NCc1ccc(F)cc1-n1cc(CO)nn1)c(O)c2=O [Example 299, Pyrimido[2,1-c][1,4]oxazine-2-carboxamide, N-[[4-fluoro-2-[4-(hydroxymethyl)-1H-1,2,3-triazol-1-yl]phenyl]methyl]-4,6,7,9-tetrahydro-3-hydroxy-9,9-dimethyl-4-oxo-] | – | – | 2 to 100 | 3 to 100
CC1(C)OCCCn2c1nc(C(=O)NCc1ccc(F)cc1-n1ccnn1)c(O)c2=O [Example 300, 6H-Pyrimido[2,1-c][1,4]oxazepine-2-carboxamide, N-[[4-fluoro-2-(1H-1,2,3-triazol-1-yl)phenyl]methyl]-4,7,8,10-tetrahydro-3-hydroxy-10,10-dimethyl-4-oxo-] | – | – | 2 to 100 | 3 to 100
CC(C)(C)c1cn(-c2cc(F)ccc2CNC(=O)c2nc3n(c(=O)c2O)CCCOC3(C)C)nn1 [Example 301, 6H-Pyrimido[2,1-c][1,4]oxazepine-2-carboxamide, N-[[2-[4-(1,1-dimethylethyl)-1H-1,2,3-triazol-1-yl]-4-fluorophenyl]methyl]-4,7,8,10-tetrahydro-3-hydroxy-10,10-dimethyl-4-oxo-] | – | – | 2 to 100 | 3 to 100
Cc1nnn(-c2cc(F)ccc2CNC(=O)c2nc3n(c(=O)c2O)CCOCC3(C)C)c1C [Example 302, 4H-Pyrimido[1,2-d][1,4]oxazepine-2-carboxamide, N-[[2-(4,5-dimethyl-1H-1,2,3-triazol-1-yl)-4-fluorophenyl]methyl]-6,7,9,10-tetrahydro-3-hydroxy-10,10-dimethyl-4-oxo-] | – | – | 2 to 100 | 3 to 100
Cc1nncn1-c1cc(F)ccc1CNC(=O)c1nc2n(c(=O)c1O)CCOC2(C)C [Example 303, Pyrimido[2,1-c][1,4]oxazine-2-carboxamide, N-[[4-fluoro-2-(3-methyl-4H-1,2,4-triazol-4-yl)phenyl]methyl]-4,6,7,9-tetrahydro-3-hydroxy-9,9-dimethyl-4-oxo-] | – | – | 100 to 1000 | > 1000
CC1(C)OCCCn2c1nc(C(=O)NCc1ccc(F)cc1N1CCOC1=O)c(O)c2=O [Example 304, 6H-Pyrimido[2,1-c][1,4]oxazepine-2-carboxamide, N-[[4-fluoro-2-(2-oxo-3-oxazolidinyl)phenyl]methyl]-4,7,8,10-tetrahydro-3-hydroxy-10,10-dimethyl-4-oxo-] | – | – | 2 to 100 | 3 to 100
CCS(=O)(=O)Nc1cc(F)ccc1CNC(=O)c1nc2n(c(=O)c1O)CCOC2(C)C [Example 305, Pyrimido[2,1-c][1,4]oxazine-2-carboxamide, N-[[2-[(ethylsulfonyl)amino]-4-fluorophenyl]methyl]-4,6,7,9-tetrahydro-3-hydroxy-9,9-dimethyl-4-oxo-] | – | – | 2 to 100 | 3 to 100
CC1(C)OCCn2c1nc(C(=O)NCc1ccc(F)cc1-n1cccn1)c(O)c2=O [Example 306, Pyrimido[2,1-c][1,4]oxazine-2-carboxamide, N-[[4-fluoro-2-(1H-pyrazol-1-yl)phenyl]methyl]-4,6,7,9-tetrahydro-3-hydroxy-9,9-dimethyl-4-oxo-] | – | – | 2 to 100 | 3 to 100
Cc1nc(C)n(-c2cc(F)ccc2CNC(=O)c2nc3n(c(=O)c2O)CCOC3(C)C)n1 [Example 307, Pyrimido[2,1-c][1,4]oxazine-2-carboxamide, N-[[2-(3,5-dimethyl-1H-1,2,4-triazol-1-yl)-4-fluorophenyl]methyl]-4,6,7,9-tetrahydro-3-hydroxy-9,9-dimethyl-4-oxo-] | – | – | 2 to 100 | 3 to 100
CC1(C)OCCn2c1nc(C(=O)NCc1ccc(F)cc1-n1ncnc1CO)c(O)c2=O [Example 308, Pyrimido[2,1-c][1,4]oxazine-2-carboxamide, N-[[4-fluoro-2-[5-(hydroxymethyl)-1H-1,2,4-triazol-1-yl]phenyl]methyl]-4,6,7,9-tetrahydro-3-hydroxy-9,9-dimethyl-4-oxo-] | – | – | 2 to 100 | 3 to 100
CC(=O)OCCSc1cc(F)ccc1CNC(=O)c1nc2n(c(=O)c1O)CCOC2(C)C [Example 309, Pyrimido[2,1-c][1,4]oxazine-2-carboxamide, N-[[2-[[2-(acetyloxy)ethyl]thio]-4-fluorophenyl]methyl]-4,6,7,9-tetrahydro-3-hydroxy-9,9-dimethyl-4-oxo-] | – | – | 2 to 100 | 3 to 100
CC(=O)OCCS(=O)(=O)c1cc(F)ccc1CNC(=O)c1nc2n(c(=O)c1O)CCOC2(C)C [Example 310, Pyrimido[2,1-c][1,4]oxazine-2-carboxamide, N-[[2-[[2-(acetyloxy)ethyl]sulfonyl]-4-fluorophenyl]methyl]-4,6,7,9-tetrahydro-3-hydroxy-9,9-dimethyl-4-oxo-] | – | – | 2 to 100 | 3 to 100
CCSc1cc(F)ccc1CNC(=O)c1nc2n(c(=O)c1O)CCOC2(C)C [Example 311, Pyrimido[2,1-c][1,4]oxazine-2-carboxamide, N-[[2-(ethylthio)-4-fluorophenyl]methyl]-4,6,7,9-tetrahydro-3-hydroxy-9,9-dimethyl-4-oxo-] | – | – | 2 to 100 | 3 to 100
CC1(C)OCCn2c1nc(C(=O)NCc1ccc(F)cc1S(=O)(=O)CCO)c(O)c2=O [Example 312, Pyrimido[2,1-c][1,4]oxazine-2-carboxamide, N-[[4-fluoro-2-[(2-hydroxyethyl)sulfonyl]phenyl]methyl]-4,6,7,9-tetrahydro-3-hydroxy-9,9-dimethyl-4-oxo-] | – | – | 2 to 100 | 3 to 100
CCC1(C)OCCn2c1nc(C(=O)NCc1ccc(F)cc1S(C)(=O)=O)c(O)c2=O (stereo not shown) [Example 314, Pyrimido[2,1-c][1,4]oxazine-2-carboxamide, 9-ethyl-N-[[4-fluoro-2-(methylsulfonyl)phenyl]methyl]-4,6,7,9-tetrahydro-3-hydroxy-9-methyl-4-oxo-] | – | – | 2 to 100 | 3 to 100
CCC1(C)OCCn2c1nc(C(=O)NCc1ccc(F)cc1S(=O)(=O)N(C)C)c(O)c2=O (stereo not shown) [Example 315, Pyrimido[2,1-c][1,4]oxazine-2-carboxamide, N-[[2-[(dimethylamino)sulfonyl]-4-fluorophenyl]methyl]-9-ethyl-4,6,7,9-tetrahydro-3-hydroxy-9-methyl-4-oxo-] | – | – | 2 to 100 | 3 to 100
Cc1ncnn1-c1cc(F)ccc1CNC(=O)c1nc2n(c(=O)c1O)CCCOC2(C)C [Example 316, 6H-Pyrimido[2,1-c][1,4]oxazepine-2-carboxamide, N-[[4-fluoro-2-(5-methyl-1H-1,2,4-triazol-1-yl)phenyl]methyl]-4,7,8,10-tetrahydro-3-hydroxy-10,10-dimethyl-4-oxo-] | – | – | 2 to 100 | 3 to 100
Cc1ncn(-c2cc(F)ccc2CNC(=O)c2nc3n(c(=O)c2O)CCCOC3(C)C)n1 [Example 317, 6H-Pyrimido[2,1-c][1,4]oxazepine-2-carboxamide, N-[[4-fluoro-2-(3-methyl-1H-1,2,4-triazol-1-yl)phenyl]methyl]-4,7,8,10-tetrahydro-3-hydroxy-10,10-dimethyl-4-oxo-] | – | – | 2 to 100 | 3 to 100
COP(=O)(OC)c1cc(F)ccc1CNC(=O)c1nc2n(c(=O)c1O)CCCOC2(C)C [Example 318, Phosphonic acid, [5-fluoro-2-[[[(4,7,8,10-tetrahydro-3-hydroxy-10,10-dimethyl-4-oxo-6H-pyrimido[2,1-c][1,4]oxazepin-2-yl)carbonyl]amino]methyl]phenyl]-, dimethyl ester] | – | – | 2 to 100 | 3 to 100
Cc1nc(C)n(-c2cc(F)ccc2CNC(=O)c2nc3n(c(=O)c2O)CCCOC3(C)C)n1 [Example 319, 6H-Pyrimido[2,1-c][1,4]oxazepine-2-carboxamide, N-[[2-(3,5-dimethyl-1H-1,2,4-triazol-1-yl)-4-fluorophenyl]methyl]-4,7,8,10-tetrahydro-3-hydroxy-10,10-dimethyl-4-oxo-] | – | – | 2 to 100 | 3 to 100
